In publication PMC10406450 (Frontiers in Endocrinology, 2023):

Tested on: CHO-hGLP-1R cells
Experiment: Cell viability assay (resazurin)
Type: cell-based, Chinese hamster
Details: 48 h treatment, then 5 h resazurin dye, fluorescence 590 nm, concentrations up to 1000-fold above the EC50, 3 independent experiments
Protocol: CHO-hGLP-1R cells described above were plated at 10 000 cells per well in 96-well black clear-bottom poly-d-lysine-coated microtiter plates (Corning, USA). Growth medium comprised DMEM supplemented with 10% FBS (Sigma-Aldrich). […] Fluorescence emission was measured at 590 nm (560 nm excitation) using an Envision plate reader (Perkin Elmer, USA).

CN[C@@H]1C[C@H]2O[C@@](C)([C@@H]1OC)n1c3ccccc3c3c4c(c5c6ccccc6n2c5c31)C(=O)NC4 [staurosporine]
cytotoxicity (cell viability): expected effect on loss of cell viability
